Data as given in US6447749B1, “Perfluoro-alkyl containing dye molecules and galencial formulations” (Schering Aktiengesellschaft, priority 1999, dated 2002).

Columns and labels:
[1] = Photophysical characterization: fluorescence properties and fluorescence quantum yield (SPEX-fluorolog, relative to indocyanine green); assay type: physicochemical
Procedure: (§1) The determination of the absorption maxima and extinction coefficients was carried out with a Lambda 2-spectrometer (Perkin-Elmer Company). The fluorescence properties were determined on a SPEX-fluorolog (Instruments S. A. Company, photomultiplier Hamamatsu PM928, excitation 350W xenon lamp). the determination of the fluorescence quantum yield was carried out relative to indocyanine green (O=13% in DMSO) by excitation at 585 nm (dyes with p=2) or 685 nm (dyes with p=3), in each case of solutions of concentration 2 μM in dye, and correction with the spectral sensitivity of lamp and detector.

lymph nodes [2] = test: Visualization of lymph nodes in situ after interstitial administration; assay type: in vivo, rat; settings: five hours after interstitial administration
Procedure: 0.1 ml of a formulation that contained 1 mmol/L of dye 8 and 19 mmol/L of 6-[1-O-α-D-mannopyranosyl)-hexanoic acid N-(3-oxa-1H,1H,2H,2H,4H,4H,5H,5H-perfluorotridecyl)-amide was administered interstitially in a skin fold between the toes of the right rear extremity. Five hours after administration, the test animal was sacrificed and opened abdominally. Based on the fluorescence image, the lymph nodes can be localized in situ and the lymph tracts can be visualized. […] The fluorescence of the substances was stimulated by irradiation of the abdominally-opened animal with near-infrared light of wavelength 740 nm, which was produced with an Nd:YAG laser. The fluorescence radiation was detected at a wavelength of >800 nm by an intensified CCD-camera, and the fluorescence images were stored digitally.

popliteal lymph node = test: Localization in lymph nodes by fluorescence microscopy on frozen sections; assay type: in vivo; settings: guinea pig popliteal lymph node; four hours after interstitial administration; formulation 5 mol % of dye 8/95 mol % Gd complex; untreated animals no fluorescence
Procedure: The localization of the formulations according to the invention in lymph nodes was studied by fluorescence microscopy on frozen sections of the lymph nodes. In this respect, the lymph nodes were prepared after the lymphography and deep-frozen at −80° C. Sections with a 5 μm thickness were produced on a freezing microtome. The evaluation was carried out on a Zeiss Axiovert 135-fluorescence microscope, which was equipped with a Cy 7-(excitation filter HQ710/70 nm, emission filter 810/90 nm, beam splitter 750 nm LP). From all the preparations, white light and fluorescence images were recorded with a CCD camera (Princeton Instruments RTE/CCD-576) and stored digitally.
Images of a cryosection from a popliteal lymph node of an untreated guinea pig in bright field (3c) and in near-infrared-fluorescence (3d) are shown for comparison.

regional lymph nodes = test: Interstitial near-infrared lymphography of guinea pigs; assay type: in vivo; settings: guinea pig, formulation 5 mol % of dye 8/95 mol % Gd complex, interstitial/intracutaneous, 0.3 μmol/kg of 8
Procedure: The imaging properties of the formulations according to the invention were studied in vivo in guinea pigs. […] The fluorescence of the substances was stimulated by irradiation of the animals with near-infrared light of wavelength 740 nm, which was produced with an Nd:YAG laser. The fluorescence radiation was detected at a wavelength of >800 nm by an intensified CCD-camera, and the fluorescence images were stored digitally.
0.1 ml of a stock solution with 1 mmol/L of 8 was injected into a skin fold between the toes of the right rear extremity, and the final concentration was 0.3 μmol/kg of 8.

lymph nodes [3] = test: Fluorescence coloring of lymph nodes after interstitial administration (monosaccharide formulation); assay type: in vivo; settings: 5 mol % of dye 8 and 95 mol % mannopyranosyl perfluoroalkyl amide
Procedure: From the substance, 0.1 ml of a solution that contained 1 mmol/L of dye 8 and 19 mmol/L of 6-[1-O-α-D-mannopyranosyl]-hexanoic acid N-(3-oxa-1H,1H,2H,2H,4H,4H,5H,5H-perfluorotridecyl)-amide was administered interstitially in a skin fold between the toes of the right rear extremity of the animal. Five hours after administration, the lymph nodes of the right and left sides of the body were prepared, and a fluorescence image was recorded. The fluorescence of the substances was stimulated by irradiation of the lymph nodes with near-infrared light of wavelength 740 nm, which was produced with an Nd:YAG laser. The fluorescence radiation was detected at a wavelength of >800 nm by an intensified CCD-camera, and the fluorescence images were stored digitally.

lymph nodes [4] = test: Fluorescence coloring of lymph nodes after intravenous administration; assay type: in vivo; settings: rat; 5 hours after intravenous administration; 0.2 ml of 0.5 mmol/L dye 8 and 9.5 mmol/L Gd complex; excitation 740 nm, detection >800 nm
Procedure: From the substance, 0.2 ml of a solution that contained 0.5 mmol/L of dye 8 and 9.5 mmol/L of 10-[1-methyl-2-oxo-3-aza-5-oxo-5-{4-perfluorooctylsulfonyl-piperazin-1-yl}-pentyl]-1,4,7-tris(carboxymethyl)-1,4,7,10-tetraazacyclododecane, was administered intravenously in a caudal vein of the rat. Five hours after administration, the lymph nodes were prepared and a fluorescence image was recorded. The fluorescence of the substances was stimulated by irradiation of the lymph nodes with near-infrared light of wavelength 740 nm, which was produced with an Nd:YAG laser. The fluorescence radiation was detected at a wavelength of >800 nm by an intensified CCD-camera, and the fluorescence images were stored digitally.

[5] = Photophysical characterization: absorption maxima and extinction coefficients (Lambda 2-spectrometer); assay type: physicochemical
Procedure: as §1

[6] = dyes 7-14 table, formulation with Gd-complex perfluoroalkyl derivative (WO 97/26017 Ex. 33), 5 mol % of dye
[7] = formulation with Gd-complex perfluoroalkyl derivative (WO 97/26017 Ex. 33), 1 mol % of dye
[8] = formulation with Gd-complex perfluoroalkyl derivative (WO 97/26017 Ex. 33), 2 mol % of dye
[9] = formulation with Gd-complex perfluoroalkyl derivative (WO 97/26017 Ex. 33), 5 mol % of dye
[10] = formulation with Gd-complex perfluoroalkyl derivative (WO 97/26017 Ex. 33), 10 mol % of dye
[11] = three-component formulation: 5 mol % of dye, 0 mol % of Gd complex, 95 mol % of monosaccharide
[12] = three-component formulation: 5 mol % of dye, 10 mol % of Gd complex, 85 mol % of monosaccharide
[13] = three-component formulation: 5 mol % of dye, 30 mol % of Gd complex, 65 mol % of monosaccharide
[14] = three-component formulation: 5 mol % of dye, 50 mol % of Gd complex, 45 mol % of monosaccharide
[15] = three-component formulation: 5 mol % of dye, 70 mol % of Gd complex, 25 mol % of monosaccharide
[16] = three-component formulation: 5 mol % of dye, 90 mol % of Gd complex, 5 mol % of monosaccharide
[17] = five hours after interstitial administration (right rear extremity)

In the case of `CC1(C)C(=CC=CC=CC=CC2=[N+](CCCCS(=O)(=O)[O-])c3ccc(C(=O)N(CCOCCC(F)(F)C(F)(F)C(F)(F)C(F)(F)C(F)(F)C(F)(F)C(F)(F)C(F)(F)F)CC(O)CO)cc3C2(C)C)N(CCCCS(=O)(=O)[O-])c2ccccc21.[Na+]` (centres unmarked) [Dye 10, 5-{N-[2-(3,3,4,4,5,5,6,6,7,7,8,8,9,9,10,10,10-heptadecafluorodecyloxy)ethyl]-N-(2,3-dihydroxypropyl)aminocarbonyl}-2-{7-[1,3-dihydro-3,3-dimethyl-1-(4-sulfobutyl)-2H-indol-2-ylidene]-1,3,5-heptatrienyl}-3,3-dimethyl-1-(4-sulfobutyl)-3H-indolium, internal salt, sodium salt], the Fluorescence max. [1, 6] is reported as 788 nm, the Fluorescence quantum yield ([1]; dyes 7-14 table, formulation with Gd-complex perfluoroalkyl derivative (WO 97/26017 Ex. 33), 5 mol % of dye, 2 μM in dye) is reported as 0.14 and the Fluorescence max. [1, 7] is reported as 784 nm. It also gave a Fluorescence quantum yield ([1]; formulation with Gd-complex perfluoroalkyl derivative (WO 97/26017 Ex. 33), 1 mol % of dye, 2 μM in dye) of 0.23, a Fluorescence max. [1, 8] of 785 nm and a Fluorescence quantum yield ([1]; formulation with Gd-complex perfluoroalkyl derivative (WO 97/26017 Ex. 33), 2 mol % of dye, 2 μM in dye) of 0.23. It also gave a Fluorescence max. [1, 9] of 788 nm, a Fluorescence quantum yield ([1]; formulation with Gd-complex perfluoroalkyl derivative (WO 97/26017 Ex. 33), 5 mol % of dye, 2 μM in dye) of 0.14 and a Fluorescence max. [1, 10] of 790 nm. For the same compound, the Fluorescence quantum yield ([1]; formulation with Gd-complex perfluoroalkyl derivative (WO 97/26017 Ex. 33), 10 mol % of dye, 2 μM in dye) was 0.03, the Fluorescence maximum [1, 11] was 800 nm and the Fluorescence quantum yield [1, 11] was 0.16. The Fluorescence maximum [1, 12] was 800 nm, the Fluorescence quantum yield [1, 12] was 0.11 and the Fluorescence maximum [1, 13] was 800 nm. For the same compound, the Fluorescence quantum yield [1, 13] was 0.14, the Fluorescence maximum [1, 14] was 798 nm and the Fluorescence quantum yield [1, 14] was 0.26. It also gave a Fluorescence maximum [1, 15] of 794 nm, a Fluorescence quantum yield [1, 15] of 0.18 and a Fluorescence maximum [1, 16] of 793 nm. The Fluorescence quantum yield [1, 16] was 0.13, the “visualization of lymph nodes and lymph tract in situ by fluorescence” value (lymph nodes [2]; abdominally-opened rat, 0.1 ml of 1 mmol/L dye 8 and 19 mmol/L mannopyranosyl perfluoroalkyl amide) was “visualized based on a fluorescence signal” and the “visual coloring of lymph nodes in situ” value (lymph nodes [2]; rat, 5 mol % of dye 8 and 95 mol % mannopyranosyl perfluoroalkyl amide) was “green coloring”. For the same compound, the “near-infrared fluorescence of lymph node frozen sections” value (popliteal lymph node) was “pronounced fluorescence”, the “fluorescence signal at the injection site” value (regional lymph nodes; abdominal view, 120 minutes after administration) was “strong fluorescence signal” and the “fluorescence signal at the injection site” value (regional lymph nodes; right lateral view, 117 minutes after administration) was “strong fluorescence signal”. The “fluorescence signal of lymph nodes, left side of the body” value (lymph nodes [3]; [17]) was “no lymph nodes of the left side of the body”, the “fluorescence signal of lymph nodes, right (administered) side of the body” value (lymph nodes [3]; [17]) was “Most lymph nodes of the right (administered) side of the body showed a fluorescence signal” and the “coloring of the fluorescence-labeled lymph nodes” value (lymph nodes [3]; five hours after interstitial administration) was “greenish-colored”. For the same compound, the “fluorescence signal of axillary, inguinal and popliteal lymph nodes” value (lymph nodes [4]) was “All lymph nodes showed a clear fluorescence signal”, the Absorption max. [5, 6] was 753 nm and the Extinction coefficient [5, 6] was 120,800 L mol^−1 cm^−1. The Absorption max. [5, 7] was 755 nm, the Extinction coefficient [5, 7] was 150,500 L mol^−1 cm^−1 and the Absorption max. [5, 8] was 755 nm. The Extinction coefficient [5, 8] was 148,800 L mol^−1 cm^−1, the Absorption max. [5, 9] was 753 nm and the Extinction coefficient [5, 9] was 120,800 L mol^−1 cm^−1. The Absorption max. [5, 10] was 751 nm, the Extinction coefficient [5, 10] was 108,500 L mol^−1 cm^−1 and the Absorption maximum [5, 11] was 760 nm. The Extinction coefficient [5, 11] was 90500 L/mol/cm, the Absorption maximum [5, 12] was 760 nm and the Extinction coefficient [5, 12] was 102700 L/mol/cm. The Absorption maximum [5, 13] was 760 nm, the Extinction coefficient [5, 13] was 107900 L/mol/cm and the Absorption maximum [5, 14] was 756 nm. For the same compound, the Extinction coefficient [5, 14] was 108700 L/mol/cm, the Absorption maximum [5, 15] was 756 nm and the Extinction coefficient [5, 15] was 111100 L/mol/cm. The Absorption maximum [5, 16] was 755 nm and the Extinction coefficient [5, 16] was 112500 L/mol/cm.
